Results on 19 molecules are retold here after US20260250290A1 (BRISTOL-MYERS SQUIBB COMPANY, priority 2023, published 2026).

SMILES strings stand for the structures. pIC50: −log10 of the molar value.

This test concerns the target T1, full length SGK1 (Homo sapiens, UniProt O00141).
T1 construct: 125 μM full length SGK1 (Life Technologies Part #PR7358A); purchased Life Technologies PR7358A
T1 sequence (O00141 1-431): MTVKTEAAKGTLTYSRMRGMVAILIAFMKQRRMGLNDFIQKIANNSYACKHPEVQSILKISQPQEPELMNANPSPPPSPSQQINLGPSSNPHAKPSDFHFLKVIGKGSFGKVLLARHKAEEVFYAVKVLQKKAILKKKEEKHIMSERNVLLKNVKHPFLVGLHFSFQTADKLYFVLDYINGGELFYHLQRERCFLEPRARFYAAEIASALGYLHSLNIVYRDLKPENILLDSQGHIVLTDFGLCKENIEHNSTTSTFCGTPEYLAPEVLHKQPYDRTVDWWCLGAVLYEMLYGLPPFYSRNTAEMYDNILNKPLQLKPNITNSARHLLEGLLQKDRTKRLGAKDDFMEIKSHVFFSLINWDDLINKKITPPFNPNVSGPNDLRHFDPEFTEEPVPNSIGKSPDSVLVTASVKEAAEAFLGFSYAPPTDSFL
Description: SGK1 inhibition Assay A (Caliper LabChip electrophoretic separation of fluorescent peptide substrate and phosphorylated product). Particulars: Assay A; 20 μM ATP, 40 min incubation; read-out: SGK1 IC50. It is filed as biochemical.

As usually defined, the pIC50 is −log10 of the IC50, conventionally taken in molar units.

As to `CC(=O)N1CC=C(c2cc(N3CCC[C@@H](NC(=O)c4cc(C5CC5)n(C)n4)C3)c3c(N)ncnn23)C1` [Example 739, (R)-N-(1-(7-(1-acetyl-2,5-dihydro-1H-pyrrol-3-yl)-4-aminopyrrolo[2,1-f][1,2,4]triazin-5-yl)piperidin-3-yl)-5-cyclopropyl-1-methyl-1H-pyrazole-3-carboxamide], the pIC50 was 7.01.

For the molecule `CC(=O)N1CC=C(c2cc(N3CCC[C@@H](NC(=O)c4ccncn4)C3)c3c(N)ncnn23)C1` [Example 740, (R)-N-(1-(7-(1-acetyl-2,5-dihydro-1H-pyrrol-3-yl)-4-aminopyrrolo[2,1-f][1,2,4]triazin-5-yl)piperidin-3-yl)pyrimidine-4-carboxamide], the pIC50 is 6.62.

`CC(=O)N1CC=C(c2cc(N3CCC[C@@H](NC(=O)c4ccnc(N5CCN(C)CC5)n4)C3)c3c(N)ncnn23)C1` [Example 741]: the pIC50 was 8.52.

Take `CCn1ccc(C(=O)N[C@@H]2CCCN(c3cc(C4=CCN(C(C)=O)C4)n4ncnc(N)c34)C2)n1` [Example 742, (R)-N-(1-(7-(1-acetyl-2,5-dihydro-1H-pyrrol-3-yl)-4-aminopyrrolo[2,1-f][1,2,4]triazin-5-yl)piperidin-3-yl)-1-ethyl-1H-pyrazole-3-carboxamide]: the pIC50 was 6.87.

As for `CC(=O)N1CC=C(c2cc(N3CCC[C@@H](NC(=O)c4ccn(CC(F)F)n4)C3)c3c(N)ncnn23)C1` [Example 743], the pIC50 is 7.29.

In the case of `CC(=O)N1CC=C(c2cc(N3CCC[C@@H](NC(=O)c4nc(N5CCN(C)CC5)ccc4F)C3)c3c(N)ncnn23)C1` [Example 744, (R)-N-(1-(7-(1-acetyl-2,5-dihydro-1H-pyrrol-3-yl)-4-aminopyrrolo[2,1-f][1,2,4]triazin-5-yl)piperidin-3-yl)-3-fluoro-6-(4-methylpiperazin-1-yl)picolinamide], the pIC50 was 8.10.

On to `CC(=O)N1CC=C(c2cc(N3CCC[C@@H](NC(=O)c4nc(F)ccc4N4CCN(C)CC4)C3)c3c(N)ncnn23)C1` [Example 745, (R)-N-(1-(7-(1-acetyl-2,5-dihydro-1H-pyrrol-3-yl)-4-aminopyrrolo[2,1-f][1,2,4]triazin-5-yl)piperidin-3-yl)-6-fluoro-3-(4-methylpiperazin-1-yl)picolinamide], for which the pIC50 was 6.44.

Consider `CC(=O)N1CC=C(c2cc(N3CCC[C@@H](NC(=O)c4ccc5n(c4=O)CCC5)C3)c3c(N)ncnn23)C1` [Example 746, (R)-N-(1-(7-(1-acetyl-2,5-dihydro-1H-pyrrol-3-yl)-4-aminopyrrolo[2,1-f][1,2,4]triazin-5-yl)piperidin-3-yl)-5-oxo-1,2,3,5-tetrahydroindolizine-6-carboxamide], for which the pIC50 was 6.11.

Consider `CC(=O)N1CC=C(c2cc(N3CCC[C@@H](NC(=O)c4cc(C5CC5)[nH]n4)C3)c3c(N)ncnn23)C1` [Example 747], for which the pIC50 is 7.89.

As for `CCOC1=C(C(=O)N[C@@H]2CCCN(c3cc(C4=CCN(C(C)=O)C4)n4ncnc(N)c34)C2)CN(CC(F)(F)C(F)(F)F)C1=O` [Example 748, (R)-N-(1-(7-(1-acetyl-2,5-dihydro-1H-pyrrol-3-yl)-4-aminopyrrolo[2,1-f][1,2,4]triazin-5-yl)piperidin-3-yl)~4-ethoxy-5-oxo-1-(2,2,3,3,3-pentafluoropropyl)-2,5-dihydro-1H-pyrrole-3-carboxamide], the pIC50 is 6.50.

Take `CC(=O)N1CC=C(c2cc(N3CCC[C@@H](NC(=O)c4cccc(N5CCN(CC(F)F)CC5)n4)C3)c3c(N)ncnn23)C1` [Example 750, (R)-N-(1-(7-(1-acetyl-2,5-dihydro-1H-pyrrol-3-yl)-4-aminopyrrolo[2,1-f][1,2,4]triazin-5-yl)piperidin-3-yl)-6-(4-(2,2-difluoroethyl)piperazin-1-yl)picolinamide]: the pIC50 was 7.39.

Turning to `CC(=O)N1CC=C(c2cc(N3CCC[C@@H](NC(=O)c4cccc(OC5CCN(C(C)C)CC5)n4)C3)c3c(N)ncnn23)C1` [Example 751, (R)-N-(1-(7-(1-acetyl-2,5-dihydro-1H-pyrrol-3-yl)-4-aminopyrrolo[2,1-f][1,2,4]triazin-5-yl)piperidin-3-yl)-6-((1-isopropylpiperidin-4-yl)oxy)picolinamide], the pIC50 is 7.43.

`CC(=O)N1CC=C(c2cc(N3CCC[C@@H](NC(=O)c4ccnc(N5CC6(C5)CN(C(C)C)C6)n4)C3)c3c(N)ncnn23)C1` [Example 752, (R)-N-(1-(7-(1-acetyl-2,5-dihydro-1H-pyrrol-3-yl)-4-aminopyrrolo[2,1-f][1,2,4]triazin-5-yl)piperidin-3-yl)-2-(6-isopropyl-2,6-diazaspiro[3.3]heptan-2-yl)pyrimidine-4-carboxamide]: the pIC50 was 7.10.

As for `CC(=O)N1CC=C(c2cc(N3CCC[C@@H](NC(=O)c4cccc(N[C@@H]5CCN(C)C5)n4)C3)c3c(N)ncnn23)C1` [Example 760, N—((R)-1-(7-(1-acetyl-2,5-dihydro-1H-pyrrol-3-yl)-4-aminopyrrolo[2,1-f][1,2,4]triazin-5-yl)piperidin-3-yl)-6-(((R)-1-methylpyrrolidin-3-yl)amino)picolinamide], the pIC50 is 7.64.

With `CC(=O)N1CC=C(c2cc(N3CCC[C@@H](NC(=O)c4cccc(NCCN(C)C)n4)C3)c3c(N)ncnn23)C1` [Example 761, (R)-N-(1-(7-(1-acetyl-2,5-dihydro-1H-pyrrol-3-yl)-4-aminopyrrolo[2,1-f][1,2,4]triazin-5-yl)piperidin-3-yl)-6-((2-(dimethylamino)ethyl)amino)picolinamide], the pIC50 was 8.15.

`CC(=O)N1CC=C(c2cc(N3CCC[C@@H](NC(=O)c4cccc(NCCN5CCCC5)n4)C3)c3c(N)ncnn23)C1` [Example 763, (R)-N-(1-(7-(1-acetyl-2,5-dihydro-1H-pyrrol-3-yl)-4-aminopyrrolo[2,1-f][1,2,4]triazin-5-yl)piperidin-3-yl)-6-((2-(pyrrolidin-1-yl)ethyl)amino)picolinamide]: the pIC50 was 8.00.

Regarding `CC(=O)N1CC=C(c2cc(N3CCC[C@@H](NC(=O)c4cccc(N5CC(S(C)(=O)=O)C5)n4)C3)c3c(N)ncnn23)C1` [Example 764, (R)-N-(1-(7-(1-acetyl-2,5-dihydro-1H-pyrrol-3-yl)-4-aminopyrrolo[2,1-f][1,2,4]triazin-5-yl)piperidin-3-yl)-6-(3-(methylsulfonyl)azetidin-1-yl)picolinamide], the pIC50 is 7.21.

With `COCCNc1cccc(C(=O)N[C@@H]2CCCN(c3cc(C4=CCN(C(C)=O)C4)n4ncnc(N)c34)C2)n1` [Example 765, (R)-N-(1-(7-(1-acetyl-2,5-dihydro-1H-pyrrol-3-yl)-4-aminopyrrolo[2,1-f][1,2,4]triazin-5-yl)piperidin-3-yl)-6-((2-methoxyethyl)amino)picolinamide], the pIC50 is 6.70.

Regarding `CC(=O)N1CC=C(c2cc(N3CCC[C@@H](NC(=O)c4cccc(NC5CN(C)C5)n4)C3)c3c(N)ncnn23)C1` [Example 766, (R)-N-(1-(7-(1-acetyl-2,5-dihydro-1H-pyrrol-3-yl)-4-aminopyrrolo[2,1-f][1,2,4]triazin-5-yl)piperidin-3-yl)-6-((1-methylazetidin-3-yl)amino)picolinamide], the pIC50 is 6.17.
